Test results reported in US20110183942A1, “Methods and Compositions for Treating Alzheimer's Disease” (UNIVERSITY OF MEDICINE AND DENTISTRY OF NEW JERSEY, priority 2008, published 2011).
“Also recorded” adds a separate entry of the source.

Legend:
[1] = system: Arc protein in DIV14 hippocampal neurons; test: Arc immunocytochemistry in cultured hippocampal neurons; assay type: cell-based, mouse
Protocol: Immunocytochemistry of cultured neurons was performed as described (Shepherd et al., Neuron, 52, 475-484 (2006)). Briefly, DIV14 primary hippocampal neurons were fixed in fixation solution (4% paraformaldehyde, 4% sucrose containing 1× PBS) for 20 min at 4° C. and were permeabilized with 0.2% Triton X-100 in PBS for 10 min 4° C. Cells were then blocked for 1 hr at room temperature in 10% normal goat serum (NGS). Primary antibodies were diluted (1:250 of phospho-eEF2 antibody, 1:500 of PSD95, 1:300 for Arc) in 10% NGS and incubated with neurons for overnight at 4° C. Alexa 488, or Alexa 555-conjugated secondary antibodies (1:500; Molecular Probes) were diluted in 10% NGS and incubated at room temperature for 1 hr. Coverslips were mounted with PermaFluor containing DAPI (Invitrogen). All images were taken with same exposure and setting using Zeiss 510 Meta confocal microscope. Quantification of Arc levels was carried out using Image J software. For the measurement of dendritic Arc levels, average pixel intensity was measured in the primary dendrites 20 μm away from the soma.

[2] = system: Arc protein in DIV14 forebrain neurons; test: Western blot of Arc protein in cultured forebrain neurons; assay type: cell-based, mouse
Protocol: For biochemistry experiments, 0.4×10^6 neurons were added to each well of a 6-well plate (Coming) coated with poly-L-lysine. Growth medium consisted of NeuroBasal (Invitrogen) supplemented with 1% fetal bovine serum (Hyclone), 2% B27, 1% Glutamax (Invitrogen), 100 U/mL penicillin, and 100 U/mL streptomycin (Invitrogen). Neurons were fed twice per week with glia conditioned growth medium.
(§1) Transfected HEK293T cells or cultured neurons were treated with various drugs and then harvested in IP buffer supplemented with 1% Triton X-100 buffer and Complete™ EDTA-Free protease inhibitors. Soluble fractions were diluted with 4× SDS sample buffer.
(§2) The membrane was blocked with TBST (50 mM Tris, pH 7.5, with 150 mM NaCl, and 0.1% Tween-20) containing 5% non-fat milk for one hour at room temperature, followed by incubation with primary antibody in TBST buffer overnight at 4° C. After three washes with TBST buffer, membranes were incubated with HRP-conjugated anti-rabbit, or anti-mouse antibody in TBST for another hour. After three washes with TBST buffer, the membrane was treated with SuperSignal ECL substrate (Pierce) according to the manufacturer's protocol.
To reduce the background signal in the co-IP assay, HRP-conjugated HA or HPR conjugated myc antibody (Santa Cruz) was used when overexpressed proteins were tagged with HA or myc. […] Image J software (NIH) was used for quantification.

phospho-eEF2 = test: Phospho-eEF2 in hippocampal slices (immunohistochemistry, Western blot); assay type: cell-based, mouse; details: WT hippocampal slices, DHPG 50 μM, 5 min
Protocol: as §1
as §2, with “Samples were separated electrophoretically using NuPAGE 4-12% Bis-Tris gels (Invitrogen) and transferred to an Immobilon-P PVDF membrane (Millipore). The” for “The”
Immunohistochemistry of phospho-eEF2 in WT and eEF2K mice was performed as described (Ramirez-Amaya et al., J. Neurosci. 25, 1761-1768 (2005)) with slight modifications. […] The signals were visualized using the cyanine 3 (CY3) TSA fluorescence system (PerkinElmer Life Sciences), and the nuclei were stained with DAPI (Molecular Probes). No staining was detected in the absence of the primary or secondary antibodies. No phospho-eEF2 signal was detected in eEF2K KO sections.

[3] = system: global protein synthesis in cultured neurons; test: Metabolic labeling, incorporation of 35S methionine and cysteine into TCA precipitant; assay type: cell-based
Protocol: To measure the incorporation of ^35S methionine and cysteine into new peptide, 30 μl protein labeling mix (Perkin Elmer) was added into 1.5 ml of regular culture medium (final 220 μCi/ml) for the time indicated in the figures. After washout once with ice-cold PBS, cells were lysed with 700 μl of RIPA buffer. After quantification of total amount of protein, equal amount of lysate (˜200 μl) was precipitated with 10% TCA.

eEF2K-mGluR5 interaction = target: T1, eEF2K-mGluR5 interaction (Mus musculus, UniProt Q3UVX5); test: Co-immunoprecipitation of mGluR5 with eEF2K in synaptoneurosomes; details: WT forebrain synaptoneurosomes, DHPG 20 min
T1 construct: confirmed that native mGluR5 associated with eEF2K; from tissue; host or cells: mouse forebrain synaptoneurosomes
T1 sequence (Q3UVX5 21-1203 limits assumed): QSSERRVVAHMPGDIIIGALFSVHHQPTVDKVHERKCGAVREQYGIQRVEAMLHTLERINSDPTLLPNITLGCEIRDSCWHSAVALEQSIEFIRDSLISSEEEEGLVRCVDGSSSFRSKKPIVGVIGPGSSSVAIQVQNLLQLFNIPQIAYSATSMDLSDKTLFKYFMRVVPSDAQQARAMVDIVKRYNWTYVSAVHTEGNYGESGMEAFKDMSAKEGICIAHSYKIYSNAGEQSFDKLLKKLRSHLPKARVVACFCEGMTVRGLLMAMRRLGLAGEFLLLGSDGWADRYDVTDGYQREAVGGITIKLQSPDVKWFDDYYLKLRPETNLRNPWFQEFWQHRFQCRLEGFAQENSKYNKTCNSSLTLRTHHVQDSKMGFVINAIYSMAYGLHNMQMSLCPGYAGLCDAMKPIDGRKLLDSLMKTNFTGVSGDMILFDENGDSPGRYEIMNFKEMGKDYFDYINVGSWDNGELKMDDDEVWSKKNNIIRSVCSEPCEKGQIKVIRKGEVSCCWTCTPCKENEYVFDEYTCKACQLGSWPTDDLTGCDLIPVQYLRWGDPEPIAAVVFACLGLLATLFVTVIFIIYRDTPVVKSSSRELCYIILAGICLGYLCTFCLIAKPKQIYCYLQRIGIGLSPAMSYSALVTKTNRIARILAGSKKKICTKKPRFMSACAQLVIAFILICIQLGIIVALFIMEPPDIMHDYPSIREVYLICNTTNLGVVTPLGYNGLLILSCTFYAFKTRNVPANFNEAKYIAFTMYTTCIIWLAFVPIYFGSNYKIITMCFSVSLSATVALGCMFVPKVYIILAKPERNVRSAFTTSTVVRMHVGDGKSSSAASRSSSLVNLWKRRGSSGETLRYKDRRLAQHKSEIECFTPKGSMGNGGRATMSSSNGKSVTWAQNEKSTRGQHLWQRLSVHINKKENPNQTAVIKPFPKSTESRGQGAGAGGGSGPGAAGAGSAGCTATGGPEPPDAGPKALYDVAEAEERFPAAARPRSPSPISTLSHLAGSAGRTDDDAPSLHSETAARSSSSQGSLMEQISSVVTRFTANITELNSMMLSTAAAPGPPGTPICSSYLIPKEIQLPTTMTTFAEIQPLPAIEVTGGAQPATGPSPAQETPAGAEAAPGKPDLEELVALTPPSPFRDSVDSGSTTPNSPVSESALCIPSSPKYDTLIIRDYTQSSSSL

SMILES: NC(C(=O)O)c1cc(O)cc(O)c1 (racemic) [DHPG, (R,S)-3,5-DHPG]
- Arc immunoreactivity in dendrites ([1]; DHPG 50 μM 5 min, relative to untreated dendrites): 1.58±0.095
- Arc immunoreactivity in cell body ([1]; DHPG 50 μM 5 min, relative to untreated soma): 1.34±0.063
- level of Arc in soma or dendrites after DHPG ([1]; eEF2K KO hippocampal neurons): did not change the level of Arc
- rapid increase of Arc protein following DHPG stimulation ([2]; Fmr1 KO neurons): absent
- level of Arc protein after DHPG ([2]; WT neurons, DHPG 50 μM, 5 min): significantly increased the level of Arc; also recorded: induced
- increase in Arc protein 5 min after DHPG ([2]; eEF2K KO neurons): absent
- phospho-eEF2 level (phospho-eEF2): dramatically increased
- global protein synthesis compared to untreated control ([3]; pretreatment of DHPG (30 min before harvest for 5 min)): 1.080±0.036
- global protein synthesis compared to untreated control ([3]; simultaneous treatment of DHPG for 5 min): 0.926±0.017
- co-IP of mGluR5 with eEF2K (eEF2K-mGluR5 interaction): decreased the co-IP of mGluR5
